Laboratory results: the NIST ThermoML archive (doi:10.1021/je101012n)

Experiment: mn = molality of the nth substance listed, in mol/kg
Details: 101 kPa, Liquid, Alternating current cell with electrodes

O=S(=O)([O-])[O-].[K+].[K+] [potassium sulfate] + O
electrical conductivity [S/m]
Details	278.15 K	283.15 K	298.15 K	308.15 K	318.15 K	343.15 K	363.15 K
m1 = 0.000102	0.001969	0.002257	0.003175	0.003884	0.004575	0.006401	0.00794
m1 = 0.00105	0.01881	0.02141	0.03006	0.03611	0.04268	0.06018	0.07466
m1 = 0.01061	0.1685	0.1919	0.2675	0.3216	0.3765	0.5269	0.6441
m1 = 0.1048	1.341	1.523	2.11	2.516	2.94	4.064	4.957
m1 = 0.2029	2.362	2.672	3.705	4.409	5.138	7.099	8.722
m1 = 0.4783	5.151	5.78	7.801	9.298	10.8	14.91	17.97

O=C([O-])O.[Na+] [sodium bicarbonate] + O
electrical conductivity [S/m]
Details	278.15 K	283.15 K	298.15 K	308.15 K	318.15 K	343.15 K	363.15 K
m1 = 0.00121	0.006911	0.008034	0.01162	0.01437	0.01703	0.02506	0.03284
m1 = 0.01187	0.06467	0.07485	0.1086	0.1346	0.1589	0.234	0.3056
m1 = 0.1223	0.5728	0.6641	0.9598	1.177	1.395	2.044	2.457
m1 = 0.7226	2.634	3.055	4.383	5.346	6.41	9.404	11.39

O=C([O-])[O-].[Na+].[Na+] [sodium carbonate] + O
electrical conductivity [S/m]
Details	278.15 K	283.15 K	298.15 K	308.15 K	318.15 K	343.15 K	363.15 K
m1 = 0.000912	0.01348	0.01603	0.02439	0.02888	0.03495	0.05196	0.06513
m1 = 0.01031	0.1285	0.1491	0.2182	0.2684	0.3237	0.4867	0.6187
m1 = 0.09334	0.886	1.024	1.486	1.822	2.182	3.222	4.117
m1 = 0.3041	2.324	2.685	3.893	4.781	5.713	8.362	10.64

[Cl-].[Na+] [sodium chloride] + O
electrical conductivity [S/m]
Details	278.15 K	283.15 K	298.15 K	308.15 K	318.15 K	343.15 K	363.15 K
m1 = 0.000104	0.0008271	0.0009431	0.001295	0.00161	0.001893	0.002693	0.003358
m1 = 0.00099	0.007531	0.008619	0.01224	0.01478	0.01747	0.02497	0.03126
m1 = 0.01	0.07349	0.08395	0.1185	0.1425	0.1694	0.2418	0.3029
m1 = 0.1	0.6588	0.7505	1.06	1.277	1.505	2.148	2.691
m1 = 0.5	2.948	3.348	4.652	5.625	6.624	9.35	11.68
m1 = 1	5.444	6.123	8.43	10.19	11.94	16.8	20.94

[F-].[Na+] [sodium fluoride] + O
electrical conductivity [S/m]
Details	278.15 K	283.15 K	298.15 K	308.15 K	318.15 K	343.15 K	363.15 K
m1 = 8.8e-05	0.0005802	0.0006955	0.0009523	0.00122	0.001433	0.002014	0.00252
m1 = 0.00092	0.006016	0.006909	0.009683	0.01152	0.01398	0.02009	0.02474
m1 = 0.00878	0.05214	0.05994	0.08551	0.1038	0.1234	0.1798	0.227
m1 = 0.0906	0.4638	0.5338	0.7669	0.9341	1.112	1.621	2.042
m1 = 0.4176	1.917	2.201	3.151	3.824	4.547	6.57	8.137
m1 = 0.8404	3.432	3.915	5.579	6.791	7.478	11.37	14.54

[Na+].[OH-] [sodium hydroxide] + O
electrical conductivity [S/m]
Details	278.15 K	283.15 K	298.15 K	308.15 K	318.15 K	343.15 K	363.15 K
m1 = 0.001	0.01671	0.01919	0.02459	0.02833	0.03327	0.04401	0.05213
m1 = 0.01	0.1596	0.1793	0.2414	0.2784	0.3201	0.4294	0.5115
m1 = 0.1	1.498	1.677	2.251	2.635	3.026	4.062	4.861
m1 = 0.5	6.639	7.417	9.875	11.59	13.25	17.72	20.63
m1 = 1	12.13	13.5	18.01	21.19	24.38	32.74	36.66

O=S(=O)([O-])[O-].[Na+].[Na+] [sodium sulfate] + O
electrical conductivity [S/m]
Details	278.15 K	283.15 K	298.15 K	308.15 K	318.15 K	343.15 K	363.15 K
m1 = 0.0001	0.001565	0.001807	0.002576	0.003181	0.003786	0.005401	0.00676
m1 = 0.001	0.01463	0.0168	0.02415	0.0292	0.03475	0.05015	0.0633
m1 = 0.01	0.1296	0.1488	0.2128	0.2575	0.3049	0.4381	0.5474
m1 = 0.1001	1	1.148	1.639	1.986	2.347	3.347	4.17
m1 = 0.1989	1.756	2.022	2.882	3.508	4.153	5.946	7.43
m1 = 0.4999	3.383	3.854	5.47	6.708	7.954	11.39	13.7
